Source: patent US20250059124A1, “METHOD FOR STORING REDUCED COENZYME Q10” (KANEKA CORPORATION, priority 2021, published 2025)

Columns and labels:
[1] = Water activity measurement (AquaLab Series 4TE); type: physicochemical; settings: water activity in packaged body with controlled internal relative humidity
Protocol: The water activity was measured with AquaLab Series 4TE (METER Group Inc.). A sample having a volume of about 5 ml in a sample dish was placed in AquaLab Series 4TE, and the water activity at 25° C. was measured.

[2] = Oxidation stability on storage (QH residual rate by HPLC); type: physicochemical
Protocol: The weight ratio of reduced coenzyme Q10 to total coenzyme Q10 (namely, reduced coenzyme Q10/(oxidized coenzyme Q10+reduced coenzyme Q10)) is defined as “QH ratio”. The QH ratio was determined by the following HPLC analysis. For the evaluation of oxidation stability, a rate of the change in the QH ratio at the end of the evaluation from that at the beginning of the evaluation was defined as “QH residual rate”, and the QH residual rate determined from the following expression was used as a measure of oxidation stability.
QH residual rate (%)=100×QH ratio at the end of the evaluation/QH ratio at the beginning of the evaluation
• Column: SYMMETRY C18 (manufactured by Waters); 250 mm (length), 4.6 mm (inner diameter) • Mobile phase: C2H5OH: CH3OH=4:3 (v:v) • Detection wavelength: 210 nm • Flow rate: 1 mL/min

[3] = stored 2 weeks at 40° C., 0.2 g in opened state in packaged body of controlled relative humidity (11% or 48%)

Row | Compound | Water activity [1] | QH residual rate (%) [2, 3] [%] | QH residual rate (%) ([2]; stored 2 weeks at 40° C. and relative humidity 75%, 0.2 g in sealed container, internal relative humidity 48%) | QH residual rate (%) ([2]; stored 4 weeks at 40° C. and relative humidity 75%, 0.2 g in sealed container, internal relative humidity 48%)
1 | co-crystal composed of QH and nicotinamide [Comparative Example 3] | 0.48 | 82.6 | – | –
2 | co-crystal composed of QH and nicotinamide [Example 5] | 0.11 | 94.7 | – | –
3 | COc1c(O)c(C)c(C/C=C(\C)CC/C=C(\C)CC/C=C(\C)CC/C=C(\C)CC/C=C(\C)CC/C=C(\C)CC/C=C(\C)CC/C=C(\C)CC/C=C(\C)CCC=C(C)C)c(O)c1OC [Comparative Example 2, reduced coenzyme Q10] | – | – | 37.2 | –
4 | COc1c(O)c(C)c(C/C=C(\C)CC/C=C(\C)CC/C=C(\C)CC/C=C(\C)CC/C=C(\C)CC/C=C(\C)CC/C=C(\C)CC/C=C(\C)CC/C=C(\C)CCC=C(C)C)c(O)c1OC [Comparative Example 1, reduced coenzyme Q10] | 0.48 | – | – | 82.1
